Assay results taken from publication PMC10747602, “Dose Response, Dosimetric, and Metabolic Evaluations of Replacement PFAS Perfluoro-(2,5,8-trimethyl-3,6,9-trioxadodecanoic) Acid (HFPO-TeA)” (Toxics, 2023).
Several values for one entry are separate records, joined by “and”; a condition that tells them apart may be missing. Identical values can stand only once.

Experiments:
[1] = Five-day oral gavage exposure: body weight, liver weights, clinical observations; format: in vivo, Sprague Dawley rats; conditions: for Body Weight Change / Liver Weight / Relative Liver Weight / Absolute Liver Weight / Body Weight Gain: 5 days
Protocol: The in vivo exposure study was performed under a contract to Jacobs Technology, Inc. (Dallas, TX, USA; EP-C-15-008) and BioSpyder Technologies, Inc. (Carlsbad, CA, USA; 68HE0B20P0250). Animal handling was subcontracted out and performed by Integrated Laboratory Systems (ILS, Morrisville, NC, USA). All procedures followed Animal Welfare Act Regulations 9 CFR 1A, 1–4, and animals were handled and treated according to the Guide for the Care and Use of Laboratory Animals. Male and female Sprague Dawley rats (n = 36/sex) were purchased from Charles River Laboratory (Raleigh, NC, USA) and allowed to acclimate for 7–10 days before initial dosing. Animals were assigned to groups using analysis of variance (ANOVA) to ensure the mean body weights of the groups were not statistically different. Same-sex pairs were housed in polycarbonate cages (23 cm × 44 cm × 21 cm) with hardwood bedding (Northeastern Products Corp., Warrensburg, NY, USA), changed twice per week. Rats were kept in rooms maintained between 20.0 and 25.0 °C and 30.0 and 70.0% humidity while exposed to a 12 h light–dark cycle. Certified Purina Pico Chow No. 5002 (Ralston Purina Co., St. Louis, MO, USA) and reverse osmosis (RO)-treated tap water (City of Durham, NC, USA) were available ad libitum. Rats were 8–10 weeks old at the time of dosing and weighed between 228 and 302 g (males) and 208 and 232 g (females).
(§1) Male and female rats (n = 4/sex, dose, and time point) were dosed by gavage (5 mL/kg bodyweight) once daily for five days with water (vehicle control) or HFPO-TeA at eight half-log dose levels ranging from 0.3 to 335.2 mg/kg/day (i.e., 0.3, 0.9, 2.3, 6.3, 17, 45.9, 124, and 335.2). The results reported here are part of a larger study, for which the main purpose was to use benchmark dose–response modeling of transcriptomic data to identify a gene set basis for the point of departure (POD).
(§2) Clinical observations were performed prior to first administration and at termination. Moribundity and mortality were assessed twice daily on weekdays and once daily on weekends. Animals found moribund were euthanized by carbon dioxide inhalation and death was confirmed by cervical dislocation.
Whole blood was collected from the retro-orbital plexus under isoflurane anesthesia 2 h following the first dose and by cardiac puncture 24 h after the last dosage. Blood was stored in anticoagulant potassium ethylenediaminetetraacetic acid (K3EDTA)-coated vacutainers, and then processed to isolate plasma via centrifugation. Animals were euthanized via carbon dioxide asphyxiation and subsequent exsanguination. Liver was collected, weighed, cubed, and divided into three aliquots. One aliquot of tissue was flash-frozen in liquid nitrogen and stored at −80 °C for analytical chemistry analyses. The remaining two aliquots were placed in RNALater and frozen for use in the companion transcriptomic study. Liver and plasma samples were received at the U.S. EPA Center for Computational Toxicology and Exposure, Advanced Analytical Chemistry Methods Branch in Research Triangle Park, North Carolina, USA, and stored at −80 °C prior to extraction.

Sprague Dawley rats = assay: Mortality in five-day oral gavage exposure; LD50 calculation (BMDS 3.3.2); conditions: for LD50 estimate (lower and upper 95% bounds): oral gavage, BMDS 3.3.2 multistage 3 model
Protocol: as §1, §2
The mortality incident data were analyzed using BMDS 3.3.2, with the dichotomous model selected as the model type. The Benchmark Response was set at 0.5 extra risk. LD50 estimates were based on the model with the lowest Akaike information criterion (AIC).

[2] = 0.3 mg/kg/day, F, individual rats
[3] = 0.3 mg/kg/day, F, mean ± SD n=4
[4] = 0.3 mg/kg/day, M, individual rats
[5] = 0.3 mg/kg/day, M, mean ± SD n=4
[6] = 0.9 mg/kg/day, F, individual rats
[7] = 0.9 mg/kg/day, F, mean ± SD n=4
[8] = 0.9 mg/kg/day, M, individual rats
[9] = 0.9 mg/kg/day, M, mean ± SD n=4
[10] = 2.3 mg/kg/day, F, individual rats
[11] = 2.3 mg/kg/day, F, mean ± SD n=4
[12] = 2.3 mg/kg/day, M, individual rats
[13] = 2.3 mg/kg/day, M, mean ± SD n=4
[14] = 6.3 mg/kg/day, F, individual rats
[15] = 6.3 mg/kg/day, F, mean ± SD n=4
[16] = 6.3 mg/kg/day, M, individual rats
[17] = 6.3 mg/kg/day, M, mean ± SD n=4
[18] = 17 mg/kg/day, F, individual rats
[19] = 17 mg/kg/day, M, individual rats

O=C(O)C(F)(OC(F)(F)C(F)(OC(F)(F)C(F)(OC(F)(F)C(F)(F)C(F)(F)F)C(F)(F)F)C(F)(F)F)C(F)(F)F (stereo not drawn) [HFPO-TeA, perfluoro-(2,5,8-trimethyl-3,6,9-trioxadodecanoic) acid]
Body Weight Change [1, 2]: 11.3 g and 8.5 g and 1.0 g and 5.1 g
Liver Weight [1, 2]: 10.2929 g and 10.0087 g and 10.5040 g and 10.1866 g
Relative Liver Weight [1, 2]: 4.458 g% and 4.431 g% and 4.573 g% and 4.489 g%
Absolute Liver Weight [1, 3]: 10.25 ± 0.2070 g
Body Weight Gain [1, 3]: 6.5 ± 4.4 g
Relative Liver Weight [1, 3]: 4.488 ± 0.062 g%
Body Weight Change [1, 4]: 28.2 g and 40.1 g and 48.5 g and 32.0 g
Liver Weight [1, 4]: 13.9494 g and 16.3796 g and 15.4580 g and 15.2495 g
Relative Liver Weight [1, 4]: 4.953 g% and 4.616 g% and 4.795 g% and 4.445 g%
Absolute Liver Weight [1, 5]: 15.2591 ± 1.0017 g
Body Weight Gain [1, 5]: 37.2 ± 9.0 g
Relative Liver Weight [1, 5]: 4.702 ± 0.220 g%
Body Weight Change [1, 6]: 8.6 g and 18.4 g and 10.4 g and 11.3 g
Liver Weight [1, 6]: 12.6621 g and 11.3910 g and 11.9531 g and 11.5466 g
Relative Liver Weight [1, 6]: 5.327 g% and 5.016 g% and 5.192 g% and 4.809 g%
Absolute Liver Weight [1, 7]: 11.8882 ± 0.5678 g
Body Weight Gain [1, 7]: 12.2 ± 4.3 g
Relative Liver Weight [1, 7]: 5.086 ± 0.224 g%
Body Weight Change [1, 8]: 46.0 g and 38.3 g and 37.4 g and 36.7 g
Liver Weight [1, 8]: 16.7977 g and 16.8117 g and 16.3850 g and 18.5738 g
Relative Liver Weight [1, 8]: 5.241 g% and 5.318 g% and 5.059 g% and 5.544 g%
Absolute Liver Weight [1, 9]: 17.1421 ± 0.9748 g
Body Weight Gain [1, 9]: 39.6 ± 4.3 g
Relative Liver Weight [1, 9]: 5.291 ± 0.201 g%
Body Weight Change [1, 10]: 21.5 g and 10.9 g and 8.5 g and 8.3 g
Liver Weight [1, 10]: 12.3341 g and 12.8755 g and 12.0585 g and 12.4504 g
Relative Liver Weight [1, 10]: 5.372 g% and 5.236 g% and 5.345 g% and 5.231 g%
Absolute Liver Weight [1, 11]: 12.4296 ± 0.3397 g
Body Weight Gain [1, 11]: 12.3 ± 6.2 g
Relative Liver Weight [1, 11]: 5.296 ± 0.073 g%
Body Weight Change [1, 12]: 37.5 g and 45.8 g and 38.2 g and 34.6 g
Liver Weight [1, 12]: 17.9851 g and 19.2395 g and 20.9175 g and 18.7875 g
Relative Liver Weight [1, 12]: 5.558 g% and 5.913 g% and 6.285 g% and 5.910 g%
Absolute Liver Weight [1, 13]: 19.2324 ± 1.2374 g
Body Weight Gain [1, 13]: 39.0 ± 4.8 g
Relative Liver Weight [1, 13]: 5.916 ± 0.297 g%
Body Weight Change [1, 14]: -11.8 g and -21.3 g and -2.2 g and -35.7 g
Liver Weight [1, 14]: 10.2774 g and 9.4969 g and 12.9764 g and 9.4275 g
Relative Liver Weight [1, 14]: 4.807 g% and 5.025 g% and 6.242 g% and 5.243 g%
Absolute Liver Weight [1, 15]: 10.5446 ± 1.6664 g
Body Weight Gain [1, 15]: -17.8 ± 14.3 g
Relative Liver Weight [1, 15]: 5.329 ± 0.634 g%
Body Weight Change [1, 16]: 27.5 g and 43.2 g and 31.7 g and 24.7 g
Liver Weight [1, 16]: 19.3187 g and 25.7576 g and 22.4062 g and 22.3377 g
Relative Liver Weight [1, 16]: 6.254 g% and 7.468 g% and 6.965 g% and 7.243 g%
Absolute Liver Weight [1, 17]: 22.4551 ± 2.6306 g
Body Weight Gain [1, 17]: 31.8 ± 8.1 g
Relative Liver Weight [1, 17]: 6.983 ± 0.527 g%
Body Weight Change [1, 18]: -62.7 g and -52.1 g and -49.6 g and -56.3 g
Liver Weight [1, 18]: 9.7114 g and 9.8972 g and 9.1738 g and 9.9260 g
Relative Liver Weight [1, 18]: 6.002 g% and 5.659 g% and 5.567 g% and 5.958 g%
Absolute Liver Weight ([1]; 17 mg/kg/day, F, mean ± SD n=4): 9.6771 ± 0.3488 g
Body Weight Gain ([1]; 17 mg/kg/day, F, mean ± SD n=4): -55.2 ± 5.7 g
Relative Liver Weight ([1]; 17 mg/kg/day, F, mean ± SD n=4): 5.796 ± 0.216 g%
Body Weight Change [1, 19]: -36.3 g and -50.7 g and -59.7 g and -59.2 g
Liver Weight [1, 19]: 13.4969 g and 13.8697 g and 12.4995 g and 13.1122 g
Relative Liver Weight [1, 19]: 5.386 g% and 5.593 g% and 5.511 g% and 5.909 g%
Absolute Liver Weight ([1]; 17 mg/kg/day, M, mean ± SD n=4): 13.2446 ± 0.5851 g
Body Weight Gain ([1]; 17 mg/kg/day, M, mean ± SD n=4): -51.5 ± 10.9 g
Relative Liver Weight ([1]; 17 mg/kg/day, M, mean ± SD n=4): 5.600 ± 0.223 g%
Abnormal clinical observations ([1]; female rats, 6.3 mg/kg/day dose group): piloerection and thinness
Abnormal clinical observations (in addition) ([1]; female rats, 17 mg/kg/day dose group): coldness to touch and hunching
Abnormal clinical observations (alongside previous signs) ([1]; female rats, 45.9 mg/kg/day): Abnormal breathing
Abnormal clinical observations ([1]; female rats, 124 mg/kg/day): decreased movement and lethargy
Abnormal clinical observations ([1]; male rats, 17 and 45.9 mg/kg/day dose groups): lethargy, piloerection, thinness, hunching, coldness to touch, abnormal breathing, and decreased movement
LD50 estimate (lower and upper 95% bounds) (Sprague Dawley rats; females): 28.23 (18.69 and 41.57) mg/kg/day
premature death (Sprague Dawley rats; male and female rats, 45.9, 124, and 335.2 mg/kg/day dose groups): Premature death occurred
doses at which mortality was observed (Sprague Dawley rats; male and female rats, oral gavage five days): > 17 mg/kg/day
LD50 estimate (lower and upper 95% bounds) (Sprague Dawley rats; males): 37.77 (26.09 and 59.96) mg/kg/day
